Measured values: ChEMBL document CHEMBL6182905, “Fluorinated sulfonamide-flavonoid derivatives as novel Keap1-Nrf2 inhibitors: Potent induction of cytoprotective gene HO-1 in vivo” (Eur J Med Chem, 2025)

Tested on: AML12
Test: Activation of Nrf2 in LPS-stimulated mouse AML12 cells assessed as fold increase in HO-1 gene expression at 10 uM incubated for 16 hrs
Assay type: cell-based
Settings: filed as activator

Row | Compound | fold change (FC)
1 | O=c1cc(-c2ccc(O)cc2)oc2cc(O)cc(O)c12 | 1.8
2 | COc1ccc(-c2cc(=O)c3ccc(NS(=O)(=O)c4ccc(OC)cc4)cc3o2)cc1 | 4.6
3 | O=c1c(O)c(-c2ccc(O)c(O)c2)oc2cc(O)cc(O)c12 | 1.4
4 | COc1ccc(-c2cc(=O)c3ccc(NS(=O)(=O)c4ccccc4F)cc3o2)cc1 | 3.4
5 | COc1ccc(-c2cc(=O)c3ccc(NS(=O)(=O)c4cccnc4)cc3o2)cc1 | 5.3
6 | COC(=O)CN(c1ccc2c(=O)cc(-c3ccc(OC)cc3)oc2c1)S(=O)(=O)c1ccc(OC)cc1 | 3.5
7 | COc1ccc(-c2cc(=O)c3ccc(NS(=O)(=O)c4ccc(C(F)(F)F)cc4)cc3o2)cc1 | 4.8
8 | COc1ccc(-c2cc(=O)c3ccc(NS(=O)(=O)c4ccccc4OC(F)(F)F)cc3o2)cc1 | 3.9
9 | COC(=O)CN(c1ccc2c(=O)cc(-c3ccc(OC)cc3)oc2c1)S(=O)(=O)c1ccc(C(F)(F)F)cc1 | 2.6
10 | COc1ccc(-c2cc(=O)c3ccc(NS(=O)(=O)c4cccc(F)c4)cc3o2)cc1 | 4.5
11 | COc1ccc(-c2cc(=O)c3ccc(NS(=O)(=O)c4ccc(F)cc4Cl)cc3o2)cc1 | 3.6
12 | COc1ccc(-c2cc(=O)c3ccc(NS(=O)(=O)c4ccc(C)cc4)cc3o2)cc1 | 3.1
13 | COc1ccc(-c2cc(=O)c3ccc(NS(=O)(=O)c4cccc(OC)c4)cc3o2)cc1 | 3.7
14 | C[S+]([O-])CCCCN=C=S (configuration not stated) | 5.8
15 | COc1ccc(-c2cc(=O)c3ccc(NS(=O)(=O)c4ccc(C(C)C)cc4)cc3o2)cc1 | 3.4
16 | COc1ccc(-c2cc(=O)c3ccc(NS(=O)(=O)c4ccc(F)cc4Br)cc3o2)cc1 | 3.2

Row | Compound | fold change (FC)
17 | COC(=O)CN(c1ccc2c(=O)cc(-c3ccc(OC)cc3)oc2c1)S(=O)(=O)c1ccc(F)cc1 | 4.8
18 | COc1ccc(-c2cc(=O)c3ccc(NS(=O)(=O)c4cccc(OC(F)(F)F)c4)cc3o2)cc1 | 4.2
19 | COc1ccc(-c2cc(=O)c3ccc(NS(=O)(=O)c4ccccc4OC)cc3o2)cc1 | 3.3
20 | CCCCOc1ccc(S(=O)(=O)Nc2ccc3c(=O)cc(-c4ccc(OC)cc4)oc3c2)cc1 | 2.3
21 | COc1ccc(-c2cc(=O)c3ccc(NS(=O)(=O)c4ccc(OC)cc4OC)cc3o2)cc1 | 4
22 | COc1ccc(-c2cc(=O)c3ccc(NS(=O)(=O)c4cccs4)cc3o2)cc1 | 3.4
23 | O=C1C[C@@H](c2ccc(O)cc2)Oc2cc(O)ccc21 | 2
24 | COc1ccc(-c2cc(=O)c3ccc(NS(=O)(=O)c4ccc(C)cc4C)cc3o2)cc1 | 3
25 | CCc1ccc(S(=O)(=O)Nc2ccc3c(=O)cc(-c4ccc(OC)cc4)oc3c2)cc1 | 5
26 | COc1ccc(-c2cc(=O)c3ccc(NS(=O)(=O)c4ccc(OC(F)(F)F)cc4)cc3o2)cc1 | 7
27 | COc1ccc(-c2cc(=O)c3ccc(NS(=O)(=O)c4c(C)c(C)cc(C)c4C)cc3o2)cc1 | 2.8
28 | O=C1c2c(O)cc(O)cc2O[C@H](c2cc(O)c(O)c(O)c2)[C@H]1O | 1.4
29 | COc1ccc(-c2cc(=O)c3ccc(NS(=O)(=O)c4ccc(F)c(Cl)c4)cc3o2)cc1 | 4
30 | COc1ccc(-c2cc(=O)c3ccc(N(CC(N)=O)S(=O)(=O)c4ccc(OC)cc4)cc3o2)cc1 | 2.3
31 | COc1ccc(-c2cc(=O)c3ccc(NS(=O)(=O)c4ccc(F)c(Br)c4)cc3o2)cc1 | 4.2
32 | COc1ccc(-c2cc(=O)c3ccc(NS(=O)(=O)c4ccc([N+](=O)[O-])cc4)cc3o2)cc1 | 3.3
